Source: patent publication US20130202659A1, “POLYMER-AGENT CONJUGATES, PARTICLES, COMPOSITIONS, AND RELATED METHODS OF USE” (CERULEAN PHARMA INC., priority 2012, published 2013)

Experiments:
[1] = system: B 16.F10 cells; experiment: CellTiter-Glo Luminescent Cell Viability Assay, cytotoxic effect of nanoparticles; format: cell-based, mouse; conditions: 24, 48 and 72 hours
Description: B 16.F10 cells, grown to 85-90% confluency in 150 cm^2 flasks (passage<30), were resuspended in media (MEM-alpha, 10% HI-FBS, lx antibiotic-antimycotic) and added to 96-well opaque-clear bottom plates at a concentration of 1500 cells/well in 200 μL/well. The cells were incubated at 37° C. with 5% CO2 for 24 hours. The following day, serial dilutions of 2× concentrated particles and 2× concentrated free drug were made in 12-well reservoirs with media to specified concentrations. The media in the plates was replaced with 100 μL of fresh media and 100 μL of the corresponding serially diluted drug. Three sets of plates were prepared with duplicate treatments. Following 24, 48 and 72 hours of incubation at 37° C. with 5% CO2, the media in the plates was replaced with 100 μL of fresh media and 100 μL of CTG solution, and then incubated for 5 minutes on a plate shaker at room temperature set to 450 rpm and allowed to rest for 15 minutes. Viable cells were measured by luminescence using a microtiter plate reader. The data was plotted as % viability vs. concentration and standardized to untreated cells.

[2] = Tolerability in ADR-RES tumor-bearing mice (Example 59); format: in vivo, mouse
Description: The treatments were administered IV into the tail vein at a dose volume of 10 and 20 mL/kg for 30 and 60 mg/kg respectively, beginning on post-implantation day 47, when the mean tumor volume was ca. 150 mm^3. Body weight and tumor volume were measured for three times a week during the dosing period and twice a week thereafter. In addition, animals were also monitored for any morbidity and adverse effects for three times a week during the dosing period and twice a week thereafter.
Tumor volume was calculated with (width×width×length)/2 mm^3 formula. […] Tumor growth inhibition (TGI) is represented as % and calculated as (1−(treated tumor volume/control tumor volume))×100 when the control group mean tumor volume reached ≧1000 mm^3. Tumor growth delay (TGD) is calculated by subtracting the day when the vehicle treated group reached the maximum tumor size 1000 mm^3 from the day when the treatment group tumor size reached 1000 mm^3.

[3] = system: H1299 tumor; experiment: Efficacy in non-small cell lung carcinoma model H1299 (Example 60); format: in vivo, nu/nu mice; conditions: large tumor group, 30 mg/kg
Description: H1299 cells were grown in culture to 85-90% confluency in RPMI medium supplemented with 10% fetal bovine serum (FBS), 1% glutamine and 1% penicillin/streptomycin. Cells were removed from the culture flask using 0.05% trypsin (passage=4), re-suspended in RPMI medium (density=50×10^6 cells/mL) and were implanted subcutaneously (5×10^6 cells in 100 μL RPMI medium/mouse) into the mammary fat pad area of male nu/nu mice on day 1.
(§1) The treatments were administered IV into the tail vein at a dose volume of 10 and 20 mL/kg for 30 and 60 mg/kg respectively, beginning on post-implantation day 30 when the mean tumor volume was ca. 170 mm^3 (small tumor group), and on day 37 when the mean tumor volume was ca. 440 mm^3 (large tumor group). Body weight and tumor volume were measured for three times a week during the dosing period and twice a week thereafter. In addition, animals were also monitored for any morbidity and adverse effects for three times a week during the dosing period and twice a week thereafter.
Tumor volume was calculated with (width×width×length)/2 mm^3 formula. Efficacy was determined by tumor growth inhibition (TGI), tumor growth delay (TGD) and survival. Tumor growth inhibition (TGI) is represented as % and calculated as (1−(treated tumor volume/control tumor volume))×100 when the control group mean tumor volume reached ≧1000 mm^3. […]

[4] = Tolerability in mouse melanoma model B16.F10 (Example 61); format: in vivo; conditions: 15 mg/kg 1/wk×3
Description: The treatments were administered IV into the tail vein at a dose volume of 10 ml/kg, beginning on post-implantation day 5, when the mean tumor volume was ca. 60 mm^3. Animals were monitored for any morbidity and adverse effects three times a week. In addition, body weight and tumor volume were also measured three times a week.

[5] = Tolerability in H1299 tumor-bearing mice (Example 60); format: in vivo, mouse
Description: as §1
Tumor volume was calculated with (width×width×length)/2 mm^3 formula. Efficacy was determined by tumor growth inhibition (TGI), tumor growth delay (TGD) and survival. Tumor growth inhibition (TGI) is represented as % and calculated as (1−(treated tumor volume/control tumor volume))×100 when the control group mean tumor volume reached ≧1000 mm^3. Tumor growth delay (TGD) is calculated by subtracting the day when the vehicle treated group reached the maximum tumor size 1000 mm^3 from the day when the treatment group tumor size reached 1000 mm^3.

[6] = mouse, in vivo, 17 day post-implantation
Description: The stock solution was diluted further with PBS to 0.6, 1.5, 3, 4.5 and 6 mg/mL (for a corresponding dose of 6, 15, 30, 45 and 60 mg/kg) so that all the groups received the same amount of ethanol, polysorbate 80, water and PBS. […] 5) PEGylated O-acetyl-5050-PLGA nanoparticle vehicle at the highest concentration of 6 mg/mL.
The treatments were administered IV into the tail vein at a dose volume of 10 mL/kg, beginning on post-implantation Day 5, when the mean tumor volume was 55 mm^3. The treatments were administered 4 times, on Days 5, 8, 12 and 15 (biweekly×4 injections). On Day 17 post-tumor implantation, mice were euthanized by CO2 inhalation according to the procedure guideline. Blood was collected by cardiac puncture and put into ethylenediaminetetraacetic acid (EDTA) or serum separation blood collection tubes. Whole blood was analyzed on the day of collection for CBC analyses. After the blood clotted and was centrifuged, serum was frozen immediately on dry ice for serum chemistry analyses.
Tolerability was determined by changes in body weight, expressed as a percent of the initial body weight on post-implantation Day 5. […] Other indices of toxicity, complete blood count (CBC) and serum chemistry were determined from blood collected from animals that were euthanized on Day 17 by CO2 inhalation, according to the procedure guideline.

[7] = system: B16.F10 tumor; experiment: Efficacy in B16.F10 murine melanoma model (Example 43); format: in vivo, mouse
Description: 7) PEGylated docetaxel-5050 PLGA-β-acetyl nanoparticles (mPEG(5k)-PLGA at 40 wt %) administered at a dose of 15 mg/kg. Refer to table for detailed description of formulations.
Tumor volume was calculated with the following equation: (width×width×length)/2 mm^3.

[8] = Tolerability in normal male C57BL/6 non-tumor-bearing mice (Example 47); format: in vivo, mouse
Description: Treatments were administered intravenously on a q7d×2 schedule, i.e., two treatments seven days apart (the first treatment was on Day one). The study ended on Day 14, six days after the 2nd treatment. Blood was collected for complete blood count (CBC) and serum chemistry. Leg muscles were collected so that nerve degeneration could be assessed from the sciatic nerve.

[9] = system: murine melanoma tumor; experiment: Efficacy and survival in aggressive murine melanoma model at MTD (Example 92); format: in vivo, mouse; conditions: dosed at respective MTD
Description: Thus, the sustained release properties of a particle according to exemplary particle 1 supports less frequent dosing of patients. Methods: Tumor-bearing mice were injected with a particle according to exemplary particle 1 or docetaxel at their respective MTD. See, for example, FIGS. 6a and 6b.

[10] = Body weight changes in A2780 tumor-bearing mice (Example 42); format: in vivo, mouse; conditions: Day 36
Description: The stock solution was diluted further with PBS to 1.5 mg/mL (for a dose of 15 mg/kg at 10 mL/kg and 30 mg/kg at 20 mL/kg). This formulation was made within 30 minutes of administration to mice.
The treatments were administered 2 times, on Day 8 and Day 15 (weekly×2 injections) for n=8 mice per group. […] On Day 50, the study was ended for all remaining mice. When removed from the study, mice were euthanized by CO2 inhalation.

[11] = system: SK-OV-3 tumor; experiment: In vivo efficacy, SK-OV-3 ovarian human xenograft model (Example 45); parameters: species or system human (in CD-1 nude mice)
Description: SK-OV-3 cells were grown in culture to confluency in RPMI medium containing 10% FBS and 1% penicillin/streptomycin and then resuspended in RPMI (passage 4) for implantation into mice. This suspension of SK-OV-3 cells (density=30×10^6 cells/mL) was implanted into the mammary gland of female CD-1 nude mice on Day 1. […]

[12] = weekly schedule, 3 injections; cited from earlier work
[13] = system: MDA-MB-435 tumor; experiment: MDA-MB-435 breast xenograft model, delayed treatment (Example 93); conditions: mouse, in vivo
Text: See, for example, FIG. 7.

[14] = system: HCT-116 tumor; experiment: In vivo efficacy, HCT-116 colon xenograft model (Example 44); parameters: species or system human (in CD-1 nude mice); conditions: 30 mg/kg IV weekly×2
Description: HCT-116 cells were grown in culture to confluency in McCoy's 5a medium containing 10% FBS and 1% penicillin/streptomycin and then resuspended in McCoy's 5a (passage 4). This suspension of HCT-116 cells (density=3.7×10^6 cells/mL) was implanted subcutaneously above the right hind leg of male CD-1 nude mice on day 1.

[15] = system: B16.F10 tumor; experiment: In vivo efficacy, B16.F10 mouse model of melanoma (Example 39)
Description: The treatments were administered on days 5, 8, and 12 (biweekly×3 injections) post tumor implantation. Health status of the animals was monitored and tumor size was measured three times a week. […] Tumors from each animal were dissected and tumor size was measured. Tumor volume was calculated using the formula: (width×width×length)/2 mm^3.

[16] = large tumor group, 30 mg/kg 1/wk×2
[17] = large tumor group, 60 mg/kg 1/wk×2
[18] = small tumor group, 30 mg/kg 1/wk×2
[19] = small tumor group, 60 mg/kg 1/wk×2

With paclitaxel-5050 PLGA-O-acetyl as the molecule, how does the “growth inhibition of B 16.F10 cells” value [1] read?
The value was “inhibited the growth of B 16.F10 cells in a dose and time dependent manner”.

With `CC(=O)O[C@@]12CO[C@@H]1C[C@H](O)[C@@]1(C)C(=O)[C@H](O)C3=C(C)[C@@H](OC(=O)[C@H](O)[C@@H](NC(=O)OC(C)(C)C)c4ccccc4)C[C@@](O)([C@@H](OC(=O)c4ccccc4)[C@H]21)C3(C)C` [Free docetaxel, docetaxel] as the molecule, how does the “Maximum body weight loss” value ([2]; 30 mg/kg 1/biwk×3) read?
Its value is 9%.

What about the hind limb paralysis ([2]; 30 mg/kg 1/biwk×3) of the same molecule?
The hind limb paralysis was “did not cause any significant body weight loss (<10%) or hind limb paralysis”.

And the “Maximum body weight loss” value ([2]; 30 mg/kg 1/wk×2)?
The value was 6%.

What about the hind limb paralysis ([2]; 30 mg/kg 1/wk×2) of the same molecule?
Its hind limb paralysis is “did not cause any significant body weight loss (<10%) or hind limb paralysis”.

And the “Maximum body weight loss” value ([2]; 60 mg/kg 1/biwk×3)?
Its value is 21%.

And the hind limb paralysis ([2]; 60 mg/kg 1/biwk×3)?
The hind limb paralysis was “severe hind limb paralysis”.

What about the “Maximum body weight loss” value ([2]; 60 mg/kg 1/wk×2) of the same molecule?
Its value is 23%.

What about the hind limb paralysis ([2]; 60 mg/kg 1/wk×2) of the same molecule?
The hind limb paralysis was “hind limb paralysis after the 2nd injection followed by recovery”.

What about the tumor shrinkage [3] of the same molecule?
The tumor shrinkage was “no tumor shrinkage”.

What about the “Maximum body weight loss” value [4] of the same molecule?
The value was 2%.

What about the “Maximum body weight loss” value [5, 16] of the same molecule?
Its value is 19%.

What about the hind limb paralysis [5, 16] of the same molecule?
Its hind limb paralysis is “did not cause any significant body weight loss or hind limb paralysis”.

What about the “Maximum body weight loss” value [5, 17] of the same molecule?
The value was “significant body weight loss”.

What about the hind limb paralysis [5, 17] of the same molecule?
The hind limb paralysis was “severe hind limb paralysis”.

And the “Maximum body weight loss” value [5, 18]?
Its value is 18%.

And the hind limb paralysis [5, 18]?
The hind limb paralysis was “did not cause any significant body weight loss or hind limb paralysis”.

What about the “Maximum body weight loss” value [5, 19] of the same molecule?
Its value is “significant body weight loss”.

What about the hind limb paralysis [5, 19] of the same molecule?
The hind limb paralysis was “severe hind limb paralysis”.

What about the “dose up to which no serum chemistry parameter was affected” value [6] of the same molecule?
Its value is 30 mg/kg.

What about the “tumor growth delay (TGD)” value ([7]; q3dq4dx3, 15 mg/kg) of the same molecule?
The value was 12 days.

And the “tumor growth delay (TGD)” value ([7]; q7dx3, 30 mg/kg)?
Its value is 17 days.

And the “day tumor volume end point reached” value ([7]; q14dx2, 60 mg/kg)?
Its value is 29 days.

What about the “tumor growth inhibition (TGI)” value ([7]; q14dx2, 60 mg/kg) of the same molecule?
Its value is 71%.

What about the Ataxia ([8]; 30 mg/kg q7d×2) of the same molecule?
Its Ataxia is 0%.

And the Lymphocyte mean ([8]; 30 mg/kg q7d×2, Day 14)?
The Lymphocyte mean was 4350 cells/A.

And the Neutrophil mean ([8]; 30 mg/kg q7d×2, Day 14)?
Its Neutrophil mean is 556 cells/A.

And the Ataxia ([8]; 45 mg/kg q7d×2)?
The Ataxia was 20%.

What about the Lymphocyte mean ([8]; 45 mg/kg q7d×2, Day 14) of the same molecule?
The Lymphocyte mean was 6780 cells/A.

What about the Neutrophil mean ([8]; 45 mg/kg q7d×2, Day 14) of the same molecule?
Its Neutrophil mean is 752 cells/A.

And the Ataxia ([8]; 60 mg/kg q7d×2)?
The Ataxia was 100%.

And the “weight lost after the second treatment, by the end of the study” value ([8]; 60 mg/kg q7d×2)?
Its value is 19%.

What about the Lymphocyte mean ([8]; 60 mg/kg q7d×2, Day 14) of the same molecule?
Its Lymphocyte mean is 5590 cells/A.

What about the Neutrophil mean ([8]; 60 mg/kg q7d×2, Day 14) of the same molecule?
Its Neutrophil mean is 470 cells/A.

And the “effect on serum chemistry” value ([8]; doses up to 60 mg/kg)?
Its value is “did not affect any serum chemistry parameter”.

And the “tumor growth with every other week dosing” value [9]?
Its value is “not sufficient to suppress tumor growth”.

And the “body weight, % of initial” value ([10]; 15 mg/kg)?
The value was 113±11%.

What about the “body weight, % of initial” value ([10]; 30 mg/kg) of the same molecule?
Its value is 105±9%.

And the “tumor growth delay (TGD)” value ([11]; 15 mg/kg weekly×2)?
Its value is 18 days.

And the “tumor growth delay (TGD)” value ([11]; 30 mg/kg weekly×2)?
Its value is 42 days.

And the “known maximum tolerated dose (MTD)” value [12]?
The value was 30 mg/kg.

What about the “effect on tumors allowed to grow to 500 mm^3 (delayed treatment)” value [13] of the same molecule?
Its value is “unable to suppress tumor growth”.

What about the “tumor growth inhibition (TGI)” value [14] of the same molecule?
Its value is 88%.

And the TGD ([14]; end point 1000 mm^3)?
The TGD was 22 days.

For docetaxel-5050 PLGA-O-acetyl, which “growth inhibition of B 16.F10 cells” value [1] is on record?
The value was “inhibited the growth of B 16.F10 cells in a dose and time dependent manner”.

With doxorubicin 5050 PLGA amide as the molecule, how does the “growth inhibition of B 16.F10 cells” value [1] read?
Its value is “inhibited the growth of B 16.F10 cells in a dose and time dependent manner”.

With `CC(=O)O[C@H]1C(=O)[C@@]2(C)[C@H]([C@H](OC(=O)c3ccccc3)[C@]3(O)C[C@H](OC(=O)[C@H](O)[C@@H](NC(=O)c4ccccc4)c4ccccc4)C(C)=C1C3(C)C)[C@]1(OC(C)=O)CO[C@@H]1C[C@@H]2O` [Free paclitaxel, paclitaxel] as the molecule, how does the “Day-17 TGI” value ([15]; 6 mg/kg IV days 5, 8, 12) read?
The value was 57%.

And the “Day-17 TGI” value ([15]; 15 mg/kg IV days 5, 8, 12)?
Its value is 83%.

For “bis(docetaxel) glutamate-5050 PLGA-O-acetyl”, which “growth inhibition of B 16.F10 cells” value [1] is on record?
The value was “inhibited the growth of B 16.F10 cells in a dose and time dependent manner”.

With `OC[C@H]1O[C@@H]2O[C@H]3[C@H](O)[C@@H](O)[C@@H](O[C@H]4[C@H](O)[C@@H](O)[C@@H](O[C@H]5[C@H](O)[C@@H](O)[C@@H](O[C@H]6[C@H](O)[C@@H](O)[C@@H](O[C@H]7[C@H](O)[C@@H](O)[C@@H](O[C@H]8[C@H](O)[C@@H](O)[C@@H](O[C@H]1[C@H](O)[C@H]2O)O[C@@H]8CO)O[C@@H]7CO)O[C@@H]6CO)O[C@@H]5CO)O[C@@H]4CO)O[C@@H]3CO` [β-CD, β-cyclodextrin] as the molecule, how does the “solubility of the cyclodextrin in the formulation” value (40 mg/mL) read?
The value was “Beta-CD is not soluble at this”.

With `OC[C@H]1O[C@@](CO)(O[C@H]2O[C@H](CO)[C@@H](O)[C@H](O)[C@H]2O)[C@@H](O)[C@@H]1O` [Sucrose, sucrose] as the molecule, how does the “Recon. Solution Appearance” value (nanoparticles A, sucrose cycle, lyoprotectant 100 mg/mL, polymer 31.25 mg/mL, 3.2:1) read?
The value was “cloudy”.
